Key:
CAL27 cells = experiment: Scratch assay (migration), CAL27; assay type: cell-based; settings: 24 h
Procedure: (§1) Figure 6 IL-22-induced proliferation and migration of healthy and transformed keratinocytes is counteracted by KIR-ESS peptide (A) Healthy KC, CAL27 and CAL33 cultures were plated in 96-well plates in quadruplicate for each condition. After 1 day, cells were pre-treated or not with Ctrl1 or KIR-ESS peptides (40 μM), or S31-201 ([…]) and PD98059 ([…]) chemical inhibitors, and, then, stimulated or not with 50 ng/ml of IL-22. Data relative to 48-h treatment are shown and expressed as the values of fluorescence intensity obtained from untreated and IL-22-treated ± SD. Three independent experiments were performed. *p < 0.01. (B) Scratch assays were carried out on healthy or SCC-lines, pre-incubated with mitomycin C (5 mg/ml), pre-treated with Ctrl1 or KIR-ESS peptides (40 μM), or S31-201 ([…]) or PD98059 ([…]) chemical inhibitors, and, then, stimulated or not with IL-22 for 24 h. Microscopic images were taken immediately after and 24 h after wound induction on confluent cell layers. Initial scratches (0 h) are dashed blank. (C) Cell-free area was measured and indicated as residual wound. Data are reported as healed wound (gray area of bars) vs residual wound (white area of bars) which a value of 100% was given. *p < 0.01.
(§2) Cultured keratinocytes and SCC cell lines were grown at 100% confluence on type IV collagen (20 μg/ml), and then incubated with mitomycin C (5 mg/ml) (Sigma-Aldrich) for 1 h. Cell monolayers were scratched with the tip of a p-200 pipette to create uniform cell-free zones, and, then, pre-treated with appropriate concentrations of SOCS3 mimetic or control peptides, or with 10 μM STAT3 (S3I-201, Santa Cruz) and 20 μM Erk1/2 (PD98059, Calbiochem) inhibitors for 1 h, before treating by 50 ng/ml of IL-22. Microscopy pictures were taken with a digital camera at different time points following IL-22 treatment. The residual gap between migrating keratinocytes was measured with a computer-assisted image analysis system (Axiovision; Zeiss, Oberkochen, Germany), and expressed as percentage of the initial scratched area.

CAL33 cells = experiment: Scratch assay (migration), CAL33; assay type: cell-based; settings: CAL33; 40 μM peptide, PD98059 20 μM or S3I-201 10 μM; IL-22 50 ng/ml, 24 h
Procedure: as §1, §2

[1] = tested on: SCC-cell lines (CAL27 and CAL33); experiment: CyQUANT proliferation assay, SCC-cell lines; assay type: cell-based; settings: PD98059 20 μM or S3I-201 10 μM, 48 h
Procedure: (§3) Figure 6 IL-22-induced proliferation and migration of healthy and transformed keratinocytes is counteracted by KIR-ESS peptide (A) Healthy KC, CAL27 and CAL33 cultures were plated in 96-well plates in quadruplicate for each condition. After 1 day, cells were pre-treated or not with Ctrl1 or KIR-ESS peptides (40 μM), or S31-201 ([…]) and PD98059 ([…]) chemical inhibitors, and, then, stimulated or not with 50 ng/ml of IL-22. Data relative to 48-h treatment are shown and expressed as the values of fluorescence intensity obtained from untreated and IL-22-treated ± SD. Three independent experiments were performed. *p < 0.01. […] (C) Cell-free area was measured and indicated as residual wound. […]
(§4) SOCS1- and SOCS3 stably transfected keratinocytes or cultured keratinocytes previously transfected with SOCS3 or control siRNA were seeded in 96-well plates (1.5–2.0 × 10^4 cells/well), and, the day after, starved in medium without serum. At 60% confluence, cells were treated with 75 ng/ml of IL-22 for 3 days, stained with 0.5% crystal violet (Bio-Rad, Hercules, CA, USA), and then analyzed in an ELISA reader (model 3550 UV ELISA reader; Bio-Rad). […] After 1-h pre-incubation, cells were treated with IL-22 or left unstimulated, cultured for other 24, 48 and 72 h, and the number of viable cells determined by CyQUANT Cell Proliferation Assay, accordingly to manufacture's protocol. […]

healthy keratinocytes = experiment: CyQUANT proliferation assay, healthy keratinocytes; assay type: cell-based, human; settings: healthy KC; PD98059 20 μM or S3I-201 10 μM, 48 h
Procedure: as §3, §4

[2] = tested on: SOCS3 expression in SCC and BCC skin tumor lines; experiment: SOCS3 mRNA and protein induction in SCC or BCC tumor cells; assay type: cell-based; settings: SCC (CAL27, CAL33) and BCC (M77015) lines, 3 h mRNA, 6 h protein
Procedure: (§5) Figure 4 SOCS3 and SOCS1 are poorly expressed in the epidermis of NMSC lesions and are not induced in transformed keratinocytes by IL-22 (A) Immunohistochemistry for SOCS3 and SOCS1 (red staining) was performed respectively on frozen or paraffin-embedded sections from biopsies of healthy skin (i), NLS (ii, iii) and LS (iv, v) areas of BCC and SCC, specimens. Psoriatic skin biopsies were also analyzed (vi). Sections were counterstained with Mayer's H&E and were visually evaluated by an pathologist experienced in dermatology. One out of four representative staining is shown. Scale bars, 50 mm. (B) Graphs show SOCS3 and SOCS1 mRNA levels which were detected by real-time PCR analysis in cultured SCC (CAL27 and CAL33) and BCC (M77015) skin tumor lines left untreated or stimulated with IL-22 or IFN-γ for 3 h and normalized for β-actin mRNA expression levels. All data were obtained from three independent experiments. […] SOCS1 was detected by IP using a specific anti-SOCS1 Ab, whereas SOCS3 by WB with an anti-SOCS3 Ab. […] Densitometric intensity (D.I.) of SOCS1 or SOCS3/β-actin was calculated from three independent experiments and numerically expressed as D. I. Ratio. *p < 0.01; **p < 0.05. […] SOCS3 and phospho-Tyr STAT3 levels were detected by WB and normalized to β-actin levels. […]

[3] = tested on: SOCS3 expression in healthy keratinocytes; experiment: SOCS3 mRNA and protein induction in healthy keratinocytes; assay type: cell-based, human; settings: healthy keratinocytes, 3 h mRNA, 6 h protein
Procedure: Figure 1 IL-22 induces SOCS3, which limits STAT3 and Erk1/2 activation (A) Keratinocyte cultures (n = 3) were stimulated with IL-22 or not for 10 min and protein lysates were subjected to immunoprecipitation and WB analyses for basal and phospho-IL-22R1, Tyk2 or Jak1. (B) WB of time-course experiments were performed on keratinocyte cultures (n = 3) to evaluate basal STAT3, Erk1/2 and MEK or phosphor-STAT3 (Tyr705 and Ser 727), phosphor-Erk1/2 and phospho-MEK. Anti-β-actin Ab was used to normalize sample loading. (C) SOCS mRNA and protein levels were detected by real-time PCR or WB analyses in cultured keratinocytes prepared from healthy skin (n = 3) left untreated or stimulated with IL-22 for the indicated time periods and normalized with β-actin values. (D) HaCaT cells stably transfected with myc-tagged SOCS1 (n = 4), SOCS2 (n = 2) and SOCS3 (n = 4) genes or control plasmids (mock, n = 3) were left untreated or stimulated with IL-22 for 15 min or 3 h and lysates subjected to WB with anti-phospho STAT3 (Tyr705), -phospho STAT3 (Ser727), -STAT3, -phospho Erk, -Erk, -c-myc and -β-actin Abs, as indicated. (E) Keratinocyte cultures were transiently transfected with siRNA specific for SOCS3 or control siRNA (NC). After 48-h transfection, cells were stimulated with IL-22 or not for the indicated time periods. In RNA interference experiments, data were obtained by three independent experiments, and SOCS3 depletion was assessed by real-time PCR and WB. […] Data are expressed as ratio of densitometric intensity (D. I.) of phosphorylated and unphosphorylated STAT3 and Erk1/2 proteins. p < 0.05 (*) values were considered significant.
as §5, with “One out of four representative staining is shown. Scale bars, 50 mm.” left out, “levels.” for “levels. All data were obtained from three independent experiments.”

[4] = tested on: SOCS1 expression in keratinocytes and SCC/BCC lines; experiment: SOCS1 mRNA and protein induction; assay type: cell-based; settings: all cell lines, 3 h mRNA, 6 h protein
Procedure: as §5

| Compound | wound closure / migration, resting cells (CAL27 cells; CAL27, without IL-22, 40 μM peptide or S31-201 10 μM) | wound closure, IL-22-treated (CAL27 cells; CAL27, 40 μM peptide, PD98059 20 μM or S3I-201 10 μM, IL-22 50 ng/ml) | wound closure, IL-22-treated (CAL33 cells) | proliferation (effect relative to KIR-ESS) [1] | proliferation (effect relative to KIR-ESS) (healthy keratinocytes) | SOCS3 mRNA and protein expression [2] | SOCS3 mRNA and protein expression [3] | SOCS1 mRNA and protein expression [4] |
| --- | --- | --- | --- | --- | --- | --- | --- | --- |
| Cc1ccc(S(=O)(=O)OCC(=O)Nc2ccc(C(=O)O)c(O)c2)cc1 [S3I-201] | efficacious in inhibiting migration of CAL27 cells | effect similar to those obtained with the chemical Erk1/2 and STAT3 inhibitors | effect similar to those obtained with the chemical Erk1/2 and STAT3 inhibitors | KIR-ESS effect was similar to that observed in all healthy and transformed keratinocyte cultures | KIR-ESS effect was similar to that observed in all healthy and transformed keratinocyte cultures |  |  |  |
| IFN-γ: cytokine stimulus, R&D Systems |  |  |  |  |  | significantly up-regulated by IFN-γ in all cell lines | significantly up-regulated by IFN-γ in all cell lines | significantly up-regulated by IFN-γ in all cell lines both at transcriptional and protein level, with the exception of SOCS1 protein in the BCC lines |

Reference: article PMC5421877, “SOCS3 inhibits the pathological effects of IL-22 in non-melanoma skin tumor-derived keratinocytes” (Oncotarget, 2017)
